Reference: patent US11629171B2, “Beta-hairpin peptidomimetics” (POLYPHOR AG, priority 2017, dated 2023)
Converted amounts (≈) assume the structure as drawn. Where a SMILES comes first, the peptide text is derived from it. Bridges are numbered along the chain shown (N, C = ends). Roman numbers before positions name the chains, in order. [ ]: non-standard residue; d: D form. Tle = CC(C)(C)[C@H](N)C(=O)O; dDab = NCC[C@@H](N)C(=O)O; Dab = NCC[C@H](N)C(=O)O; Dap = NC[C@H](N)C(=O)O; Mpa = O=C(O)CCS

What was measured:
Type in all cases: cell-based
[1] = tested on: Acinetobacter baumannii 872842; details: 872842
Method in brief: (§1)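 Two-fold peptide dilutions in polysorbate 80-containing (0.002% final) cation-adjusted Mueller-Hinton II broth were inoculated with about 10^6 CFU/mL. The MIC was taken as the lowest concentration, in μg/mL, preventing visible growth at 18-20 hours and 35° C.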

[2] = tested on: Acinetobacter baumannii DSM 30008; details: DSM 30008
Method in brief: as §1

[3] = tested on: Enterobacter cloacae 848840; details: 848840
Method in brief: as §1

Escherichia coli 926415 = details: 926415
Method in brief: as §1

[4] = tested on: Escherichia coli ATCC 25922; details: ATCC 25922
Method in brief: as §1

[5] = tested on: Klebsiella pneumoniae 968733; details: 968733
Method in brief: as §1

[6] = tested on: Klebsiella pneumoniae SSI #3010; details: SSI #3010
Method in brief: as §1

[7] = tested on: Pseudomonas aeruginosa ATCC 27853; details: ATCC 27853
Method in brief: as §1

[8] = tested on: human red blood cells (hRBC); assay: Hemolysis; details: red cells of human, 1 h, 200
Method in brief: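 Percent hemolysis relative to 2% Triton X-100 (100%) and PBS/10% water (0%), from blank-corrected OD540 of diluted supernatants. Peptides tested at 200 μg/mL against 20% (v/v) washed human erythrocytes, 1 h, 37° C, shaking at 300 rpm.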

Structure (SMILES): CC(C)C[C@@H]1NC(=O)[C@@H](CC(C)C)NC(=O)[C@H](CCN)NC(=O)[C@@H](NC(=O)[C@H](CCN)NC(=O)[C@@H](NC(=O)[C@H](CCN)NC(=O)CC[C@@H]2NC(=O)[C@H](CCN)NC(=O)[C@H](Cc3ccc(O)cc3)NC(=O)[C@@H](NC(=O)[C@@H](NC(=O)[C@H](N)CO)C(C)C)CSSC[C@@H](C(=O)N[C@@H](CO)C(=O)N[C@H](C)C(=O)O)NC(=O)[C@H](C(C)(C)C)NC(=O)[C@H](CO)NC(=O)[C@H](Cc3c[nH]c4ccccc34)NC(=O)[C@H]([C@@H](C)O)NC(=O)[C@@H](CCN)NC2=O)[C@@H](C)O)CCNC(=O)[C@H]([C@@H](C)O)NC(=O)[C@H](CCN)NC(=O)[C@H](CCN)NC1=O [Ex. 241] (I: H-[dS]VCY[Dab]E[dDab]TWS[Tle]CS[dA]-OH / II: [Dab]T[Dab][Dab][Dab][dL]L[Dab][Dab]T; disulfide I:3-I:12; amide I:6-II:N; lactam II:4-II:C)
- MIC [1]: 0.125 µg/mL (≈ 0.0489 µM)
- MIC [2]: 0.125 µg/mL (≈ 0.0489 µM)
- MIC [3]: 2 µg/mL (≈ 0.782 µM)
- MIC (Escherichia coli 926415): 1 µg/mL (≈ 0.391 µM)
- MIC [4]: 0.125 µg/mL (≈ 0.0489 µM)
- MIC [5]: 1 µg/mL (≈ 0.391 µM)
- MIC [6]: 0.125 µg/mL (≈ 0.0489 µM)
- MIC [7]: 0.25 µg/mL (≈ 0.0977 µM)
- Hemolysis at 200 μg/mL [8]: <1%

Structure (SMILES): CC(C)C[C@@H]1NC(=O)[C@@H](CC(C)C)NC(=O)[C@H](CCN)NC(=O)[C@@H](NC(=O)[C@H](CCN)NC(=O)[C@@H](NC(=O)[C@H](CCN)NC(=O)CC[C@@H]2NC(=O)[C@H](CCN)NC(=O)[C@H](Cc3ccc(O)cc3)NC(=O)[C@@H](NC(=O)[C@@H](NC(=O)[C@H](N)CO)C(C)C)CSSC[C@@H](C(=O)N[C@@H](CO)C(=O)N[C@H](CO)C(=O)O)NC(=O)[C@H](C(C)(C)C)NC(=O)[C@H](CO)NC(=O)[C@H](Cc3c[nH]c4ccccc34)NC(=O)[C@H]([C@@H](C)O)NC(=O)[C@@H](CCN)NC2=O)[C@@H](C)O)CCNC(=O)[C@H]([C@@H](C)O)NC(=O)[C@H](CCN)NC(=O)[C@H](CCN)NC1=O [Ex. 242] (I: H-[dS]VCY[Dab]E[dDab]TWS[Tle]CS[dS]-OH / II: [Dab]T[Dab][Dab][Dab][dL]L[Dab][Dab]T; disulfide I:3-I:12; amide I:6-II:N; lactam II:4-II:C)
- MIC [1]: 0.125 µg/mL (≈ 0.0486 µM)
- MIC [2]: 0.125 µg/mL (≈ 0.0486 µM)
- MIC [3]: 4 µg/mL (≈ 1.55 µM)
- MIC (Escherichia coli 926415): 0.25 µg/mL (≈ 0.0971 µM)
- MIC [4]: 0.0625 µg/mL (≈ 0.0243 µM)
- MIC [5]: 1 µg/mL (≈ 0.389 µM)
- MIC [6]: 0.125 µg/mL (≈ 0.0486 µM)
- MIC [7]: 0.125 µg/mL (≈ 0.0486 µM)
- Hemolysis at 200 μg/mL [8]: <1%

Structure (SMILES): CC(=O)N[C@@H](CCN)C(=O)N[C@H](C(=O)N[C@H]1CSSC[C@@H](C(=O)N[C@@H](CO)C(=O)N[C@@H](CCC(=O)O)C(N)=O)NC(=O)[C@H](C(C)(C)C)NC(=O)[C@H](CO)NC(=O)[C@H](Cc2c[nH]c3ccccc23)NC(=O)[C@H](CCN)NC(=O)[C@@H](CCN)NC(=O)[C@H](CCC(=O)N[C@@H](CCN)C(=O)N[C@H](C(=O)N[C@@H](CN)C(=O)N[C@H]2CCNC(=O)[C@H]([C@@H](C)O)NC(=O)[C@H](CCN)NC(=O)[C@H](CCN)NC(=O)[C@H](CC(C)C)NC(=O)[C@@H](CC(C)C)NC(=O)[C@H](CCN)NC2=O)[C@@H](C)O)NC(=O)[C@H](CO)NC(=O)[C@H](Cc2ccc(O)cc2)NC1=O)C(C)C [Ex. 243] (I: Ac-[Dab]VCYSE[dDab][Dab]WS[Tle]CSE-NH2 / II: [Dab]T[Dap][Dab][Dab][dL]L[Dab][Dab]T; disulfide I:3-I:12; amide I:6-II:N; lactam II:4-II:C)
- MIC [1]: 0.0625 µg/mL (≈ 0.0237 µM)
- MIC [2]: 0.0625 µg/mL (≈ 0.0237 µM)
- MIC [3]: 0.25 µg/mL (≈ 0.0946 µM)
- MIC (Escherichia coli 926415): 0.125 µg/mL (≈ 0.0473 µM)
- MIC [4]: 0.0625 µg/mL (≈ 0.0237 µM)
- MIC [5]: 0.125 µg/mL (≈ 0.0473 µM)
- MIC [6]: 0.0625 µg/mL (≈ 0.0237 µM)
- MIC [7]: 0.25 µg/mL (≈ 0.0946 µM)
- Hemolysis at 200 μg/mL [8]: <1%

Structure (SMILES): CC(=O)N[C@H]1CSSC[C@@H](C(N)=O)NC(=O)[C@H](CO)NC(=O)[C@H](C)NC(=O)[C@H](C(C)(C)C)NC(=O)[C@H](CO)NC(=O)[C@H](Cc2c[nH]c3ccccc23)NC(=O)[C@H](CO)NC(=O)[C@@H](CCN)NC(=O)[C@H](CCC(=O)N[C@@H](CCN)C(=O)N[C@H](C(=O)N[C@@H](CN)C(=O)N[C@H]2CCNC(=O)[C@H]([C@@H](C)O)NC(=O)[C@H](CCN)NC(=O)[C@H](CCN)NC(=O)[C@H](CC(C)C)NC(=O)[C@@H](CC(C)C)NC(=O)[C@H](CCN)NC2=O)[C@@H](C)O)NC(=O)[C@H](CN)NC(=O)[C@H](Cc2ccc(O)cc2)NC(=O)[C@H]([C@@H](C)O)NC(=O)[C@H](C(C)C)NC1=O [Ex. 244] (I: Ac-CVTY[Dap]E[dDab]SWS[Tle]ASC-NH2 / II: [Dab]T[Dap][Dab][Dab][dL]L[Dab][Dab]T; disulfide I:1-I:14; amide I:6-II:N; lactam II:4-II:C)
- MIC [1]: 0.0625 µg/mL (≈ 0.0243 µM)
- MIC [2]: 0.03125 µg/mL (≈ 0.0122 µM)
- MIC [3]: 0.0625 µg/mL (≈ 0.0243 µM)
- MIC (Escherichia coli 926415): 0.125 µg/mL (≈ 0.0486 µM)
- MIC [4]: 0.03125 µg/mL (≈ 0.0122 µM)
- MIC [5]: 0.0625 µg/mL (≈ 0.0243 µM)
- MIC [6]: 0.0625 µg/mL (≈ 0.0243 µM)
- MIC [7]: 0.25 µg/mL (≈ 0.0972 µM)
- Hemolysis at 200 μg/mL [8]: 1%

Structure (SMILES): CC(C)C[C@@H]1NC(=O)[C@@H](CC(C)C)NC(=O)[C@H](CCN)NC(=O)[C@@H](NC(=O)[C@H](CN)NC(=O)[C@@H](NC(=O)[C@H](CCN)NC(=O)CC[C@@H]2NC(=O)[C@H](CN)NC(=O)[C@H](Cc3ccc(O)cc3)NC(=O)[C@H]([C@@H](C)O)NC(=O)[C@H](C(C)C)NC(=O)CCSSC[C@@H](C(N)=O)NC(=O)[C@H](CO)NC(=O)[C@H](C)NC(=O)[C@H](C(C)(C)C)NC(=O)[C@H](CO)NC(=O)[C@H](Cc3c[nH]c4ccccc34)NC(=O)[C@H](CO)NC(=O)[C@@H](CCN)NC2=O)[C@@H](C)O)CCNC(=O)[C@H]([C@@H](C)O)NC(=O)[C@H](CCN)NC(=O)[C@H](CCN)NC1=O [Ex. 245] (I: [Mpa]VTY[Dap]E[dDab]SWS[Tle]ASC-NH2 / II: [Dab]T[Dap][Dab][Dab][dL]L[Dab][Dab]T; disulfide I:1-I:14; amide I:6-II:N; lactam II:4-II:C)
- MIC [1]: 0.0625 µg/mL (≈ 0.0249 µM)
- MIC [2]: 0.03125 µg/mL (≈ 0.0124 µM)
- MIC [3]: 0.125 µg/mL (≈ 0.0497 µM)
- MIC (Escherichia coli 926415): 0.125 µg/mL (≈ 0.0497 µM)
- MIC [4]: 0.0625 µg/mL (≈ 0.0249 µM)
- MIC [5]: 0.25 µg/mL (≈ 0.0994 µM)
- MIC [6]: 0.125 µg/mL (≈ 0.0497 µM)
- MIC [7]: 0.25 µg/mL (≈ 0.0994 µM)
- Hemolysis at 200 μg/mL [8]: 1%

Structure (SMILES): CC(=O)N[C@@H](CCN)C(=O)N[C@H](C(=O)N[C@H]1CSSC[C@@H](C(=O)N[C@H](C(=O)N[C@@H](C)C(=O)N[C@H](C(=O)N[C@@H](CCC(=O)O)C(N)=O)C(C)C)C(C)(C)C)NC(=O)[C@H](Cc2c[nH]c3ccccc23)NC(=O)[C@H](CO)NC(=O)[C@@H](CCN)NC(=O)[C@H](CCC(=O)N[C@@H](CCN)C(=O)N[C@H](C(=O)N[C@@H](CN)C(=O)N[C@H]2CCNC(=O)[C@H]([C@@H](C)O)NC(=O)[C@H](CCN)NC(=O)[C@H](CCN)NC(=O)[C@H](CC(C)C)NC(=O)[C@@H](CC(C)C)NC(=O)[C@H](CCN)NC2=O)[C@@H](C)O)NC(=O)[C@H](CN)NC(=O)[C@H](Cc2ccc(O)cc2)NC1=O)C(C)C [Ex. 246] (I: Ac-[Dab]VCY[Dap]E[dDab]SWC[Tle]AVE-NH2 / II: [Dab]T[Dap][Dab][Dab][dL]L[Dab][Dab]T; disulfide I:3-I:10; amide I:6-II:N; lactam II:4-II:C)
- MIC [1]: 4 µg/mL (≈ 1.52 µM)
- MIC [2]: 0.5 µg/mL (≈ 0.191 µM)
- MIC [3]: 2 µg/mL (≈ 0.762 µM)
- MIC (Escherichia coli 926415): 2 µg/mL (≈ 0.762 µM)
- MIC [4]: 0.25 µg/mL (≈ 0.0953 µM)
- MIC [5]: 4 µg/mL (≈ 1.52 µM)
- MIC [6]: 0.25 µg/mL (≈ 0.0953 µM)
- MIC [7]: 0.25 µg/mL (≈ 0.0953 µM)
- Hemolysis at 200 μg/mL [8]: <1%
